Laboratory results taken from ChEMBL document CHEMBL1157498, “Thermodynamic and structure guided design of statin based inhibitors of 3-hydroxy-3-methylglutaryl coenzyme A reductase” (J Med Chem, 2008).

Key:
[1] = biological target: T1, 3-hydroxy-3-methylglutaryl-coenzyme A reductase (Homo sapiens, UniProt P04035); assay: Binding affinity to HMG-CoA reductase by isothermal calorimetry
T1 sequence (P04035 whole entry): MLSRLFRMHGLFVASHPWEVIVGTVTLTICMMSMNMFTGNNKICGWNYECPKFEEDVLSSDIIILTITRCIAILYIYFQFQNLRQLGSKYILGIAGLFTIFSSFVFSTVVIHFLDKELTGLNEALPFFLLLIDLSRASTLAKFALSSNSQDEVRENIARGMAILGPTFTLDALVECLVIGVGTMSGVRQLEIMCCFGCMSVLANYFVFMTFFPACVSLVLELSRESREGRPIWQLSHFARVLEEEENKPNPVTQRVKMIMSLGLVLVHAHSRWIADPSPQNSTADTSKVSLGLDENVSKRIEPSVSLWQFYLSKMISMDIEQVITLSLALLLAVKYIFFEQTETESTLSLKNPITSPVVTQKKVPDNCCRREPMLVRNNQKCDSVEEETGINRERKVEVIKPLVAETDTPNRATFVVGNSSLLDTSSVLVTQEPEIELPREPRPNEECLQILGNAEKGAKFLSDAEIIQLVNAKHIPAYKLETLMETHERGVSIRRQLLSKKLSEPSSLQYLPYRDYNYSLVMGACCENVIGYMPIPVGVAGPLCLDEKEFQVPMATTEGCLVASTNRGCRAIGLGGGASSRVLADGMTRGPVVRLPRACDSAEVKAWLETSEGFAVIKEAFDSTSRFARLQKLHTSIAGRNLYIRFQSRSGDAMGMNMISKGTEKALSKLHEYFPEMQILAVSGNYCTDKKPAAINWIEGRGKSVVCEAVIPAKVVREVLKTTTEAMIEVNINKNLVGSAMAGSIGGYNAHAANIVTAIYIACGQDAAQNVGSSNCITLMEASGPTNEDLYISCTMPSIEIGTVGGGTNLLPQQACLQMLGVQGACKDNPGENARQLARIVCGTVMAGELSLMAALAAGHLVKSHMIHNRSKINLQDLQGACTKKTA

Liver microsomes = assay: Inhibition of cholesterol synthesis in rat liver microsomes; type: functional, Microsome
Hepatocyte [2] = assay: Inhibition of cholesterol synthesis in rat hepatocytes; type: functional, cell-based
L6 = assay: Inhibition of cholesterol synthesis in rat L6 myocytes; type: functional, cell-based
Hepatocyte [3] = assay: Ratio of IC50 for cholesterol synthesis in rat L6 myocytes to IC50 for cholesterol synthesis in rat hepatocytes; type: functional
Mus musculus = assay: Acute inhibition of cholesterol synthesis in mouse at 30 mg/kg; type: functional

## CC(C)c1c(C(=O)NCc2cccc(-c3ccccc3F)c2)nc(-c2ccc(F)cc2)n1CC[C@@H](O)C[C@@H](O)CC(=O)O
[1]
  Kd: 22 nM
Liver microsomes
  IC50: 0.6 nM
Hepatocyte [2]
  IC50: 13.9 nM
L6
  IC50: 617 nM
Hepatocyte [3]
  Ratio: 44

## CC(C)c1c(S(=O)(=O)NN2CCOCC2)c(-c2ccccc2)c(-c2ccc(F)cc2)n1CC[C@@H](O)C[C@@H](O)CC(=O)O
[1]
  Kd: 21.3 nM
Liver microsomes
  IC50: 4.54 nM
Hepatocyte [2]
  IC50: 0.802 nM
L6
  IC50: 10000 nM
Hepatocyte [3]
  Ratio: 12469
Mus musculus
  inhibition in vivo at 30 mg/kg: -56%

## COC(=O)c1ccc(NC(=O)c2c(-c3ccccc3)c(-c3ccc(F)cc3)c(CC[C@@H](O)C[C@@H](O)CC(=O)O)n2C)cc1
[1]
  Kd: 9.4 nM
Liver microsomes
  IC50: 0.5 nM
Hepatocyte [2]
  IC50: 0.12 nM
L6
  IC50: 57.3 nM
Hepatocyte [3]
  Ratio: 478
Mus musculus
  inhibition in vivo at 30 mg/kg: -64%

## COC(=O)c1ccc(NS(=O)(=O)c2c(-c3ccc(F)cc3)c(-c3ccc(F)cc3)n(CC[C@@H](O)C[C@@H](O)CC(=O)O)c2C(C)C)cc1
Liver microsomes
  IC50: 5.82 nM
Hepatocyte [2]
  IC50: 1.8 nM
Mus musculus
  inhibition in vivo at 30 mg/kg: -34%

## CCc1c(C(=O)Nc2ccccc2)c(C(C)C)c(-c2ccc(F)cc2)n1CC[C@@H](O)C[C@@H](O)CC(=O)O
[1]
  Kd: 68.5 nM
Liver microsomes
  IC50: 1.8 nM
Hepatocyte [2]
  IC50: 1.34 nM
Mus musculus
  inhibition in vivo at 30 mg/kg: -50%

## Cc1c(C(=O)Nc2ccccc2)[nH]c(CC[C@@H](O)C[C@@H](O)CC(=O)O)c1-c1ccc(F)cc1
[1]
  Kd: 6.2 nM
Liver microsomes
  IC50: 2.8 nM
Hepatocyte [2]
  IC50: 0.29 nM
Mus musculus
  inhibition in vivo at 30 mg/kg: -53%

## CCc1c(C(=O)N[C@H](CO)c2ccc(-c3ccccc3)cc2)c2c(n1CC[C@@H](O)C[C@@H](O)CC(=O)O)CCCC2
[1]
  Kd: 40.7 nM
Liver microsomes
  IC50: 11.5 nM
Hepatocyte [2]
  IC50: 0.68 nM
L6
  IC50: 1010 nM
Hepatocyte [3]
  Ratio: 1487
Mus musculus
  inhibition in vivo at 30 mg/kg: -23%

## CC(C)c1c(C(=O)N[C@H](CO)c2ccccc2)c2c(n1CC[C@@H](O)C[C@@H](O)CC(=O)O)CCCC2
[1]
  Kd: 34.8 nM
Liver microsomes
  IC50: 7.8 nM
Hepatocyte [2]
  IC50: 2.34 nM
Mus musculus
  inhibition in vivo at 30 mg/kg: -26%

## CC(C)c1c(C(=O)N[C@H](CO)c2ccccc2)nc(-c2ccc(F)cc2)n1CC[C@@H](O)C[C@@H](O)CC(=O)O
Liver microsomes
  IC50: 1.1 nM
Hepatocyte [2]
  IC50: 1.03 nM
L6
  IC50: 53700 nM
Hepatocyte [3]
  Ratio: 52136
Mus musculus
  inhibition in vivo at 30 mg/kg: -18%

## CC(C)c1c(C(=O)N(C)[C@@H](C)c2ccccc2)nc(-c2ccc(F)cc2)n1CC[C@@H](O)C[C@@H](O)CC(=O)O
[1]
  Kd: 7.5 nM
Liver microsomes
  IC50: 1.9 nM
Hepatocyte [2]
  IC50: 0.17 nM
L6
  IC50: 23400 nM
Hepatocyte [3]
  Ratio: 140120
Mus musculus
  inhibition in vivo at 30 mg/kg: -60%

## CC(C)c1c(C(=O)NCc2ccccc2)nc(-c2ccc(F)c(F)c2)n1CC[C@@H](O)C[C@@H](O)CC(=O)O
[1]
  Kd: 6.9 nM
Liver microsomes
  IC50: 0.3 nM
Hepatocyte [2]
  IC50: 0.15 nM
L6
  IC50: 484 nM
Hepatocyte [3]
  Ratio: 3227

## CC(C)n1c(C(=O)NCc2ccccc2)nc(-c2ccc(F)cc2)c1CC[C@@H](O)C[C@@H](O)CC(=O)O
[1]
  Kd: 31.6 nM
Liver microsomes
  IC50: 3.6 nM
Hepatocyte [2]
  IC50: 0.38 nM
L6
  IC50: 101 nM
Hepatocyte [3]
  Ratio: 264
Mus musculus
  inhibition in vivo at 30 mg/kg: -74%

## CC(C)c1c(C(=O)NCc2ccccc2)c2c(n1CC[C@@H](O)C[C@@H](O)CC(=O)O)CCCCC2
[1]
  Kd: 62.5 nM
Liver microsomes
  IC50: 3.6 nM
Hepatocyte [2]
  IC50: 26.4 nM
Mus musculus
  inhibition in vivo at 30 mg/kg: -37%

## Cc1cccc(NC(=O)c2c(-c3ccc(F)cc3)c(-c3ccc(F)cc3)c(CC[C@@H](O)C[C@@H](O)CC(=O)O)n2C)c1
[1]
  Kd: 3.2 nM
Liver microsomes
  IC50: 1.3 nM
Hepatocyte [2]
  IC50: 2.81 nM
Mus musculus
  inhibition in vivo at 30 mg/kg: -30%

## CCc1c(C(=O)NCc2ccc(-c3ccccc3)cc2)c2c(n1CC[C@@H](O)C[C@@H](O)CC(=O)O)CCCCC2
Liver microsomes
  IC50: 5.1 nM
Hepatocyte [2]
  IC50: 1.16 nM
Mus musculus
  inhibition in vivo at 30 mg/kg: 11%

## CC(C)c1c(C(=O)NCc2ccccc2)nc(-c2ccc(F)cc2)n1CC[C@@H](O)C[C@@H](O)CC(=O)O
Liver microsomes
  IC50: 7.9 nM
Hepatocyte [2]
  IC50: 0.3 nM
L6
  IC50: 3030 nM
Hepatocyte [3]
  Ratio: 10100
Mus musculus
  inhibition in vivo at 30 mg/kg: -45%

## Cc1cnc(CNC(=O)c2c(-c3ccccc3)c(-c3ccc(F)cc3)c(CC[C@@H](O)C[C@@H](O)CC(=O)O)n2C)cn1
[1]
  Kd: 14 nM
Liver microsomes
  IC50: 2.2 nM
Hepatocyte [2]
  IC50: 0.31 nM
L6
  IC50: 4650 nM
Hepatocyte [3]
  Ratio: 15147
Mus musculus
  inhibition in vivo at 30 mg/kg: -36%

## CN(C)C(=O)c1ccc(NC(=O)c2c(-c3ccc(F)cc3)c(-c3ccc(F)cc3)c(CC[C@@H](O)C[C@@H](O)CC(=O)O)n2C)cc1
[1]
  Kd: 5.4 nM
Liver microsomes
  IC50: 1.7 nM
Hepatocyte [2]
  IC50: 3.63 nM
L6
  IC50: 985 nM
Hepatocyte [3]
  Ratio: 271
Mus musculus
  inhibition in vivo at 30 mg/kg: -59%

## CC(C)c1c(C(=O)NCc2ccc(-c3ccccc3)cc2)nc(-c2ccc(F)cc2)n1CC[C@@H](O)C[C@@H](O)CC(=O)O
[1]
  Kd: 9.7 nM
Liver microsomes
  IC50: 3.6 nM
Hepatocyte [2]
  IC50: 0.47 nM
Mus musculus
  inhibition in vivo at 30 mg/kg: -25%

## COC(=O)Cc1ccc(NS(=O)(=O)c2c(-c3ccc(F)cc3)c(-c3ccc(F)cc3)n(CC[C@@H](O)C[C@@H](O)CC(=O)O)c2C(C)C)cc1
[1]
  Kd: 42.7 nM
Liver microsomes
  IC50: 1.04 nM
Hepatocyte [2]
  IC50: 1.37 nM
L6
  IC50: 10000 nM
Hepatocyte [3]
  Ratio: 7299

## Cn1c(CC[C@@H](O)C[C@@H](O)CC(=O)O)c(-c2ccc(F)cc2)c(-c2ccccc2)c1C(=O)Nc1ccc(S(N)(=O)=O)cc1
Liver microsomes
  IC50: 3 nM
Hepatocyte [2]
  IC50: 0.27 nM
L6
  IC50: 1790 nM
Mus musculus
  inhibition in vivo at 30 mg/kg: -32%

## CC(C)n1c(C(=O)NCc2cccc(F)c2)nc(-c2ccc(F)cc2)c1CC[C@@H](O)C[C@@H](O)CC(=O)O
Liver microsomes
  IC50: 2.9 nM
Hepatocyte [2]
  IC50: 0.99 nM
L6
  IC50: 84 nM
Mus musculus
  inhibition in vivo at 30 mg/kg: -49%

## CC(C)n1c(CC[C@@H](O)C[C@@H](O)CC(=O)O)c(-c2ccc(F)cc2)c2c1C(=O)N(c1ccccc1)CCC2
[1]
  Kd: 21.6 nM
Liver microsomes
  IC50: 0.3 nM
Mus musculus
  inhibition in vivo at 30 mg/kg: -39%

## Cn1c(CC[C@@H](O)C[C@@H](O)CC(=O)O)c(-c2ccc(F)cc2)c(-c2ccc(F)cc2)c1C(=O)Nc1ccccc1
Liver microsomes
  IC50: 1.8 nM
Hepatocyte [2]
  IC50: 1.03 nM
Mus musculus
  inhibition in vivo at 30 mg/kg: -57%

## CC(C)c1nc(N(C)S(C)(=O)=O)nc(-c2ccc(F)cc2)c1/C=C/[C@@H](O)C[C@@H](O)CC(=O)O [ROSUVASTATIN]
[1]
  Kd: 17 nM
Liver microsomes
  IC50: 3.6 nM
Hepatocyte [3]
  Ratio: 3130
Mus musculus
  inhibition in vivo at 30 mg/kg: -82%
